Key:
Test in all cases: relative viability (nuclei count vs DMSO), 5 days (fraction); higher = more cells survive
NCI-H460 = system: NCI-H460
How it was run: (§1)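 Lung cancer cell lines, seeded in 1536-well plates, were treated the following day by pin tool with a single drug or with five library-drug doses (not always all listed) in √10 steps on top of a fixed anchor-drug dose. Cells were fixed and nuclei stained in one step after 5 days, and nuclei were counted. Relative viability is the nuclei count for treated wells divided by that for vehicle wells, reported as medians of duplicate plates.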

NCI-H358 = system: NCI-H358
How it was run: as §1

NCI-H1792 = system: NCI-H1792
How it was run: as §1

NCI-H1944 = system: NCI-H1944
How it was run: as §1

LU99A = system: LU99A
How it was run: as §1

NCI-H1975 = system: NCI-H1975
How it was run: as §1

UMC-11 = system: UMC-11
How it was run: as §1

NCI-H1755 = system: NCI-H1755
How it was run: as §1

HOP-62 = system: HOP-62
How it was run: as §1

NCI-H2342 = system: NCI-H2342
How it was run: as §1

LCLC-97TM1 = system: LCLC-97TM1
How it was run: as §1

A-427 = system: A-427
How it was run: as §1

NCI-H1793 = system: NCI-H1793
How it was run: as §1

NCI-H2170 = system: NCI-H2170
How it was run: as §1

NCI-H1915 = system: NCI-H1915
How it was run: as §1

SW 900 = system: SW 900
How it was run: as §1

LXF-289 = system: LXF-289
How it was run: as §1

COR-L 105 = system: COR-L 105
How it was run: as §1

LC-2-ad = system: LC-2-ad
How it was run: as §1

SK-LU-1 = system: SK-LU-1
How it was run: as §1

EPLC-272H = system: EPLC-272H
How it was run: as §1

NCI-H2085 = system: NCI-H2085
How it was run: as §1

CC(C)Oc1cc(Nc2nc(N[C@@H](C)c3ccc(F)cn3)ncc2Cl)n[nH]1 [AZ23] + CCNC(=O)c1noc(-c2cc(C(C)C)c(O)cc2O)c1-c1ccc(CN2CCOCC2)cc1 [Luminespib] (partner 0.01 µM)
relative viability (NCI-H460; first compound 0.01 µM): 0.0317
relative viability (NCI-H460; first compound 0.03162 µM): 0.0332
relative viability (NCI-H460; first compound 0.3162 µM): 0.0248
relative viability (NCI-H358; first compound 0.01 µM): 0.416
relative viability (NCI-H358; first compound 0.03162 µM): 0.395
relative viability (NCI-H358; first compound 0.3162 µM): 0.349
relative viability (NCI-H1792; first compound 0.01 µM): 0.305
relative viability (NCI-H1792; first compound 0.03162 µM): 0.646
relative viability (NCI-H1792; first compound 0.3162 µM): 0.466
relative viability (NCI-H1944; first compound 0.01 µM): 0.557
relative viability (NCI-H1944; first compound 0.03162 µM): 0.75
relative viability (NCI-H1944; first compound 0.3162 µM): 0.726
relative viability (LU99A; first compound 0.01 µM): 0.217
relative viability (LU99A; first compound 0.03162 µM): 0.188
relative viability (LU99A; first compound 0.3162 µM): 0.298
relative viability (NCI-H1975; first compound 0.01 µM): 0.234
relative viability (NCI-H1975; first compound 0.03162 µM): 0.195
relative viability (NCI-H1975; first compound 0.3162 µM): 0.223
relative viability (UMC-11; first compound 0.01 µM): 1.15
relative viability (UMC-11; first compound 0.03162 µM): 1.05
relative viability (UMC-11; first compound 0.3162 µM): 0.988
relative viability (NCI-H1755; first compound 0.01 µM): 0.293
relative viability (NCI-H1755; first compound 0.03162 µM): 0.605
relative viability (NCI-H1755; first compound 0.3162 µM): 0.634
relative viability (HOP-62; first compound 0.01 µM): 0.841
relative viability (HOP-62; first compound 0.03162 µM): 0.981
relative viability (HOP-62; first compound 0.3162 µM): 1.01
relative viability (NCI-H2342; first compound 0.01 µM): 0.658
relative viability (NCI-H2342; first compound 0.03162 µM): 0.679
relative viability (NCI-H2342; first compound 0.3162 µM): 0.718
relative viability (LCLC-97TM1; first compound 0.01 µM): 0.846
relative viability (LCLC-97TM1; first compound 0.03162 µM): 0.783
relative viability (LCLC-97TM1; first compound 0.3162 µM): 0.796
relative viability (A-427; first compound 0.01 µM): 0.844
relative viability (A-427; first compound 0.03162 µM): 1.03
relative viability (A-427; first compound 0.3162 µM): 1.03
relative viability (NCI-H1793; first compound 0.01 µM): 0.158
relative viability (NCI-H1793; first compound 0.03162 µM): 0.194
relative viability (NCI-H1793; first compound 0.3162 µM): 0.143
relative viability (NCI-H2170; first compound 0.01 µM): 1.01
relative viability (NCI-H2170; first compound 0.03162 µM): 0.739
relative viability (NCI-H2170; first compound 0.3162 µM): 0.822
relative viability (NCI-H1915; first compound 0.01 µM): 1.17
relative viability (NCI-H1915; first compound 0.03162 µM): 0.866
relative viability (NCI-H1915; first compound 0.3162 µM): 0.805
relative viability (SW 900; first compound 0.01 µM): 0.174
relative viability (SW 900; first compound 0.03162 µM): 0.143
relative viability (SW 900; first compound 0.3162 µM): 0.174
relative viability (LXF-289; first compound 0.01 µM): 0.884
relative viability (LXF-289; first compound 0.03162 µM): 0.745
relative viability (LXF-289; first compound 0.3162 µM): 0.598
relative viability (COR-L 105; first compound 0.01 µM): 0.83
relative viability (COR-L 105; first compound 0.03162 µM): 0.872
relative viability (COR-L 105; first compound 0.3162 µM): 0.731
relative viability (LC-2-ad; first compound 0.01 µM): 1.26
relative viability (LC-2-ad; first compound 0.03162 µM): 0.965
relative viability (LC-2-ad; first compound 0.3162 µM): 0.93
relative viability (SK-LU-1; first compound 0.03162 µM): 0.216
relative viability (SK-LU-1; first compound 0.3162 µM): 0.18
relative viability (EPLC-272H; first compound 0.01 µM): 0.15
relative viability (EPLC-272H; first compound 0.03162 µM): 0.203
relative viability (EPLC-272H; first compound 0.3162 µM): 0.551
relative viability (NCI-H2085; first compound 0.01 µM): 0.321
relative viability (NCI-H2085; first compound 0.03162 µM): 0.422
relative viability (NCI-H2085; first compound 0.3162 µM): 0.463

C[C@@H]1CN(CC(=O)Nc2ccc3c(c2)Cc2cccc(-c4cc(=O)cc(N5CCOCC5)o4)c2S3)C[C@H](C)O1 + CCNC(=O)c1noc(-c2cc(C(C)C)c(O)cc2O)c1-c1ccc(CN2CCOCC2)cc1 [Luminespib] (partner 0.01 µM)
relative viability (NCI-H460; first compound 0.04 µM): 0.0317
relative viability (NCI-H460; first compound 0.1265 µM): 0.0406
relative viability (NCI-H460; first compound 0.4 µM): 0.0348
relative viability (NCI-H460; first compound 4 µM): 0.0326
relative viability (NCI-H358; first compound 0.04 µM): 0.429
relative viability (NCI-H358; first compound 0.1265 µM): 0.308
relative viability (NCI-H358; first compound 0.4 µM): 0.399
relative viability (NCI-H358; first compound 4 µM): 0.233
relative viability (NCI-H1792; first compound 0.04 µM): 0.385
relative viability (NCI-H1792; first compound 0.1265 µM): 0.493
relative viability (NCI-H1792; first compound 0.4 µM): 0.399
relative viability (NCI-H1792; first compound 4 µM): 0.333
relative viability (NCI-H1944; first compound 0.04 µM): 0.676
relative viability (NCI-H1944; first compound 0.1265 µM): 0.729
relative viability (NCI-H1944; first compound 0.4 µM): 0.938
relative viability (NCI-H1944; first compound 4 µM): 0.824
relative viability (LU99A; first compound 0.04 µM): 0.304
relative viability (LU99A; first compound 0.1265 µM): 0.192
relative viability (LU99A; first compound 0.4 µM): 0.26
relative viability (LU99A; first compound 4 µM): 0.231
relative viability (NCI-H1975; first compound 0.04 µM): 0.289
relative viability (NCI-H1975; first compound 0.1265 µM): 0.199
relative viability (NCI-H1975; first compound 0.4 µM): 0.26
relative viability (NCI-H1975; first compound 4 µM): 0.158
relative viability (UMC-11; first compound 0.04 µM): 1.1
relative viability (UMC-11; first compound 0.1265 µM): 0.903
relative viability (UMC-11; first compound 0.4 µM): 1.03
relative viability (UMC-11; first compound 4 µM): 0.675
relative viability (NCI-H1755; first compound 0.04 µM): 0.398
relative viability (NCI-H1755; first compound 0.1265 µM): 0.361
relative viability (NCI-H1755; first compound 0.4 µM): 0.45
relative viability (NCI-H1755; first compound 4 µM): 0.258
relative viability (HOP-62; first compound 0.04 µM): 0.917
relative viability (HOP-62; first compound 0.1265 µM): 0.898
relative viability (HOP-62; first compound 0.4 µM): 0.92
relative viability (HOP-62; first compound 4 µM): 0.907
relative viability (NCI-H2342; first compound 0.04 µM): 0.706
relative viability (NCI-H2342; first compound 0.1265 µM): 0.641
relative viability (NCI-H2342; first compound 0.4 µM): 0.722
relative viability (NCI-H2342; first compound 4 µM): 0.662
relative viability (LCLC-97TM1; first compound 0.04 µM): 0.657
relative viability (LCLC-97TM1; first compound 0.1265 µM): 0.828
relative viability (LCLC-97TM1; first compound 0.4 µM): 0.749
relative viability (LCLC-97TM1; first compound 4 µM): 0.813
relative viability (A-427; first compound 0.1265 µM): 0.884
relative viability (A-427; first compound 0.4 µM): 1.02
relative viability (A-427; first compound 4 µM): 1.02
relative viability (NCI-H1793; first compound 0.04 µM): 0.141
relative viability (NCI-H1793; first compound 0.1265 µM): 0.177
relative viability (NCI-H1793; first compound 0.4 µM): 0.164
relative viability (NCI-H1793; first compound 4 µM): 0.135
relative viability (NCI-H2170; first compound 0.04 µM): 0.661
relative viability (NCI-H2170; first compound 0.1265 µM): 0.67
relative viability (NCI-H2170; first compound 0.4 µM): 0.677
relative viability (NCI-H2170; first compound 4 µM): 0.86
relative viability (NCI-H1915; first compound 0.04 µM): 0.761
relative viability (NCI-H1915; first compound 0.1265 µM): 0.686
relative viability (NCI-H1915; first compound 0.4 µM): 0.756
relative viability (NCI-H1915; first compound 4 µM): 0.68
relative viability (SW 900; first compound 0.04 µM): 0.166
relative viability (SW 900; first compound 0.1265 µM): 0.165
relative viability (SW 900; first compound 0.4 µM): 0.169
relative viability (SW 900; first compound 4 µM): 0.178
relative viability (LXF-289; first compound 0.04 µM): 0.657
relative viability (LXF-289; first compound 0.1265 µM): 0.645
relative viability (LXF-289; first compound 0.4 µM): 0.714
relative viability (LXF-289; first compound 4 µM): 0.73
relative viability (COR-L 105; first compound 0.04 µM): 0.882
relative viability (COR-L 105; first compound 0.1265 µM): 0.719
relative viability (COR-L 105; first compound 0.4 µM): 0.887
relative viability (COR-L 105; first compound 4 µM): 0.783
relative viability (LC-2-ad; first compound 0.04 µM): 0.986
relative viability (LC-2-ad; first compound 0.1265 µM): 0.912
relative viability (LC-2-ad; first compound 0.4 µM): 0.979
relative viability (LC-2-ad; first compound 4 µM): 0.953
relative viability (SK-LU-1; first compound 0.04 µM): 0.222
relative viability (SK-LU-1; first compound 0.1265 µM): 0.203
relative viability (SK-LU-1; first compound 0.4 µM): 0.23
relative viability (SK-LU-1; first compound 4 µM): 0.167
relative viability (EPLC-272H; first compound 0.04 µM): 0.519
relative viability (EPLC-272H; first compound 0.1265 µM): 0.381
relative viability (EPLC-272H; first compound 0.4 µM): 0.26
relative viability (EPLC-272H; first compound 4 µM): 0.254
relative viability (NCI-H2085; first compound 0.04 µM): 0.477
relative viability (NCI-H2085; first compound 0.1265 µM): 0.509
relative viability (NCI-H2085; first compound 0.4 µM): 0.404
relative viability (NCI-H2085; first compound 4 µM): 0.397
